Data published in ChEMBL document CHEMBL5500393, “Discovery and Optimization of Novel SaFabI Inhibitors as Specific Therapeutic Agents for MRSA Infection” (J Med Chem, 2024).
pIC50: −log10 of the molar value. Converted amounts (≈) assume the structure as drawn. The source made the active and inactive calls. The calls are words filed in the database; no cut-off is given here.

Key:
Staphylococcus aureus [1] = experiment: Antimicrobial activity against […] Staphylococcus aureus NRS271 measured after 24 hrs by CLSI protocol based microdilution method; type: functional
Staphylococcus aureus [2] = experiment: Antimicrobial activity against […] Staphylococcus aureus ATCC33591 assessed as frequency of spontaneous resistance at 16 times MIC measured after 48 hrs by; type: functional
Staphylococcus aureus [3] = experiment: Antimicrobial activity against […] Staphylococcus aureus ATCC43300 measured after 24 hrs by CLSI protocol based microdilution method; type: functional
Staphylococcus aureus [4] = experiment: In vivo antibacterial activity against methicilin-resistant Staphylococcus aureus ATCC33591 infected in BALB/c mouse skin infection model assessed as reduction in skin lesions at 10 mg/kg administered daily for 4 days (reference value: 48.3 mm2); type: functional; settings: time 4 day
Staphylococcus aureus [5] = experiment: Antimicrobial activity against […] Staphylococcus aureus ATCC33591 measured after 24 hrs by CLSI protocol based microdilution method; type: functional
[6] = target: T1, Enoyl-[acyl-carrier-protein] reductase [NADPH] FabI (Staphylococcus aureus) (UniProt Q6GI75); experiment: Inhibition of N-terminal his 6 tagged Staphylococcus aureus Fabi (1 to […] residues) expressed in Escherichia coli BL21 at 1 uM incubated for 30 mins in presence of NADPH by fluorescence based microplate reader analysis relative to control
T1 sequence (whole entry): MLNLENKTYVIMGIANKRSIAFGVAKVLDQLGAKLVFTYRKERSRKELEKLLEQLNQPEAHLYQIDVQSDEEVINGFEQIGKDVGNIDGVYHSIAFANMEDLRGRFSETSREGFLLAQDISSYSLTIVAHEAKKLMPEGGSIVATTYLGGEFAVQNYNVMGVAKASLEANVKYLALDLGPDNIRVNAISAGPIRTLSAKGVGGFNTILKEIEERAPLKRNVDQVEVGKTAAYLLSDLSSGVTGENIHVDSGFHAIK

Staphylococcus aureus [7] = experiment: Antimicrobial activity against […] Staphylococcus aureus ATCC33591 assessed as frequency of spontaneous resistance at 4 times MIC measured after 48 hrs by; type: functional
Staphylococcus aureus [8] = experiment: Antimicrobial activity against […] Staphylococcus aureus ATCC33591 assessed as frequency of spontaneous resistance at 8 times MIC measured after 48 hrs by; type: functional
[9] = target: T2, Enoyl-[acyl-carrier-protein] reductase [NADPH] FabI (Staphylococcus aureus, UniProt Q6GI75); experiment: Inhibition of N-terminal his 6 tagged Staphylococcus aureus Fabi (1 to […] residues) expressed in Escherichia coli BL21 incubated for 30 mins in presence of NADPH by fluorescence based microplate reader analysis
T2 sequence (Q6GI75 whole entry): T1 sequence (whole entry)

Staphylococcus aureus [10] = experiment: In vivo antibacterial activity against methicilin-resistant Staphylococcus aureus ATCC33591 infected in BALB/c mouse skin infection model assessed as log reduction in bacterial count at 10 mg/kg administered daily for 4 days; type: functional; settings: time 4 day
Staphylococcus aureus [11] = experiment: In vivo antibacterial activity against methicilin-resistant Staphylococcus aureus ATCC33591 infected in BALB/c mouse skin infection model assessed as normal skin structure at 10 mg/kg administered daily for 4 days by H and E staining based analysis; type: functional, organism-based; settings: time 4.0 day
Staphylococcus aureus [12] = experiment: Antimicrobial activity against methicillin-susceptible Staphylococcus aureus ATCC25923 measured after 24 hrs by CLSI protocol based microdilution method; type: functional
Staphylococcus aureus [13] = experiment: In vivo antibacterial activity against methicilin-resistant Staphylococcus aureus ATCC33591 infected in BALB/c mouse skin infection model assessed as normal morphology at 10 mg/kg administered daily for 4 days by H and E staining based analysis; type: functional, organism-based; settings: time 4.0 day
Staphylococcus aureus [14] = experiment: Antimicrobial activity against methicillin-susceptible Staphylococcus aureus ATCC29213 measured after 24 hrs by CLSI protocol based microdilution method; type: functional
Staphylococcus aureus [15] = experiment: Antimicrobial activity against […] Staphylococcus aureus USA300 measured after 24 hrs by CLSI protocol based microdilution method; type: functional
[16] = target: T1, Enoyl-[acyl-carrier-protein] reductase [NADPH] FabI (Staphylococcus aureus); experiment: Binding affinity to N-terminal his 6 tagged Staphylococcus aureus Fabi (1 to […] residues) expressed in Escherichia coli BL21 assessed as change in melting temperature at 80 uM incubated for 20 mins in presence of NADPH by differential scanning fluorescence assay
HepG2 [17] = experiment: Cytotoxicity against human HepG2 cells assessed as survival rate at 400 uM measured after 48 hrs by CCK-8 method relative to control; type: functional; settings: read-out: Survival
[18] = Cytotoxicity against HEK293 cells assessed as survival rate at 800 uM measured after 48 hrs by CCK-8 method relative to control; type: toxicity, cell-based; settings: human, read-out: Survival
[19] = Inhibition of N-terminal his 6 tagged Escherichia coli Fabi (1 to 789 residues) expressed in Escherichia coli BL21 incubated for 30 mins in presence of NADH by fluorescence based microplate reader analysis
Enterococcus faecium = experiment: Antimicrobial activity against Enterococcus faecium ATCC19434 measured after 24 hrs by CLSI protocol based microdilution method; type: functional
[20] = Selectivity index, ratio of HC50 for sheep erythrocytes to MIC for Staphylococcus aureus; type: toxicity; settings: read-out: Selectivity Index
[21] = Hemolytic activity in sheep erythrocytes assessed as hemolysis at 128 ug/ml incubated for 1 hr by microplate reader based analysis relative to control; type: toxicity, cell-based, Ovis aries, Erythrocyte; settings: at 128 µg/mL, read-out: Activity
[22] = Hemolytic activity in sheep erythrocytes assessed as hemolysis at 64 ug/ml incubated for 1 hr by microplate reader based analysis relative to control; type: toxicity, cell-based, Ovis aries, Erythrocyte; settings: at 64 µg/mL, read-out: Activity
[23] = Inhibition of N-terminal his 6 tagged Acinetobacter baumannii Fabi (1 to 804 residues) expressed in Escherichia coli BL21 incubated for 30 mins in presence of NADH by fluorescence based microplate reader analysis
[24] = Hemolytic activity in sheep erythrocytes assessed as hemolysis incubated for 1 hr by microplate reader based analysis; type: toxicity, cell-based, Ovis aries, Erythrocyte
[25] = Hemolytic activity in sheep erythrocytes assessed as hemolysis at 256 ug/ml incubated for 1 hr by microplate reader based analysis relative to control; type: toxicity, cell-based, Ovis aries, Erythrocyte; settings: at 256 µg/mL, read-out: Activity
[26] = target: T1, Enoyl-[acyl-carrier-protein] reductase [NADPH] FabI (Staphylococcus aureus); experiment: Inhibition of N-terminal his 6 tagged Staphylococcus aureus Fabi (1 to […] residues) expressed in Escherichia coli BL21 at 10 uM incubated for 30 mins in presence of NADPH by fluorescence based microplate reader analysis relative to control
Acinetobacter baumannii = experiment: Antimicrobial activity against Acinetobacter baumannii ATCC19606 measured after 24 hrs by CLSI protocol based microdilution method; type: functional
Pseudomonas aeruginosa = experiment: Antimicrobial activity against Pseudomonas aeruginosa PAO1 measured after 24 hrs by CLSI protocol based microdilution method; type: functional
Candida albicans = experiment: Antimicrobial activity against Candida albicans SC5314 measured after 48 hrs by CLSI protocol based microdilution method; type: functional
Escherichia coli = experiment: Antimicrobial activity against Escherichia coli ATCC25922 measured after 24 hrs by CLSI protocol based microdilution method; type: functional
Enterococcus faecalis = experiment: Antimicrobial activity against Enterococcus faecalis ATCC29212 measured after 24 hrs by CLSI protocol based microdilution method; type: functional
[27] = Cytotoxicity against HEK293 cells assessed as survival rate at 400 uM measured after 48 hrs by CCK-8 method relative to control; type: toxicity, cell-based; settings: human, read-out: Survival
HepG2 [28] = experiment: Cytotoxicity against human HepG2 cells assessed as survival rate at 800 uM measured after 48 hrs by CCK-8 method relative to control; type: functional; settings: read-out: Survival
Staphylococcus aureus [29] = experiment: Antimicrobial activity against Staphylococcus aureus measured after 24 hrs by CLSI protocol based microdilution method; type: functional
Staphylococcus aureus [30] = experiment: Antimicrobial activity against […] Staphylococcus aureus ATCC33591 assessed as reduction in RNA content measured after 4 hrs by microplate reader based analysis; type: functional
Staphylococcus aureus [31] = experiment: In vivo antibacterial activity against methicilin-resistant Staphylococcus aureus ATCC33591 infected in BALB/c mouse skin infection model assessed as restoration of cell morphology at 20 mg/kg administered daily for 4 days by H and E staining based analysis; type: functional, organism-based; settings: time 4.0 day
Staphylococcus aureus [32] = experiment: In vivo antibacterial activity against methicilin-resistant Staphylococcus aureus ATCC33591 infected in BALB/c mouse skin infection model assessed as reduction in area of injury at 20 mg/kg administered daily for 4 days by H and E staining based analysis; type: functional, organism-based; settings: time 4.0 day
Staphylococcus aureus [33] = experiment: In vivo antibacterial activity against methicilin-resistant Staphylococcus aureus ATCC33591 infected in BALB/c mouse skin infection model assessed as decrease in lesion size at 10 mg/kg administered daily for 4 days (reference value: 43.4 mm2); type: functional; settings: time 4 day
Staphylococcus aureus [34] = experiment: In vivo antibacterial activity against methicilin-resistant Staphylococcus aureus ATCC33591 infected in BALB/c mouse skin infection model assessed as reduction in number of inflammatory cells at 20 mg/kg administered daily for 4 days by H and E staining based analysis; type: functional, organism-based; settings: time 4.0 day

Row | Compound | MIC (Staphylococcus aureus [1]) | MIC (Staphylococcus aureus [3]) | MIC (Staphylococcus aureus [5]) | inhibition [6] | pIC50 [9] | MIC (Staphylococcus aureus [12]) | MIC (Staphylococcus aureus [14]) | MIC (Staphylococcus aureus [15]) | MIC (Enterococcus faecium) | MIC (Acinetobacter baumannii) | MIC (Pseudomonas aeruginosa) | MIC (Candida albicans) | MIC (Escherichia coli) | also measured
1 | Cc1c(Br)cccc1N1C[C@@H](c2nc3ccccc3n2C)CC1=O | 1 µg/mL (≈ 2.6 µM) | 0.5 µg/mL (≈ 1.3 µM) | 0.25 µg/mL (≈ 0.651 µM) | > 85% | 7.03 | 0.5 µg/mL (≈ 1.3 µM) | 0.5 µg/mL (≈ 1.3 µM) | 0.5 µg/mL (≈ 1.3 µM) | – | – | – | – | – | Activity (Staphylococcus aureus [2]): <2.6 10^-10No_unit; Activity (Staphylococcus aureus [4]): 16.1 mm2; Activity (Staphylococcus aureus [7]): 3.8 10^-10No_unit; Activity (Staphylococcus aureus [8]): <2.6 10^-10No_unit; log(activity) (Staphylococcus aureus [10]): 6.8; Activity (Staphylococcus aureus [11]): Active; Activity (Staphylococcus aureus [13]): Active; ΔTm [16]: 14.3 °C
2 | Cn1c(C2CC(=O)N(c3cccc(Cl)c3Cl)C2)nc2ccccc21 (stereo not given) | 4 µg/mL (≈ 11.1 µM) | 2 µg/mL (≈ 5.55 µM) | 4 µg/mL (≈ 11.1 µM) | 73.7% | 6.31 | 2 µg/mL (≈ 5.55 µM) | 2 µg/mL (≈ 5.55 µM) | 2 µg/mL (≈ 5.55 µM) | > 32 µg/mL | > 32 µg/mL | > 32 µg/mL | > 32 µg/mL | > 32 µg/mL | viability at 400 µM (HepG2 [17]): > 70%; viability at 48 h, 800 µM [18]: > 75%; pIC50 [19]: 7.44; selectivity ratio [20]: > 64; hemolysis at 1 h, 128 ug/ml [21]: 4.3%; hemolysis at 1 h, 64 ug/ml [22]: 2.4%; pIC50 [23]: 6.57; HC50 at 1 h [24]: > 256 µg/mL; hemolysis at 1 h, 256 ug/ml [25]: 7.5%; inhibition [26]: 98.8%; MIC (Enterococcus faecalis): > 32 µg/mL; viability at 48 h, 400 µM [27]: > 70%; viability at 800 µM (HepG2 [28]): > 75%; MIC (Staphylococcus aureus [29]): 2 µg/mL (≈ 5.55 µM)
3 | CO[C@H]1/C=C/O[C@@]2(C)Oc3c(C)c(O)c4c(O)c(c(/C=N/N5CCN(C)CC5)c(O)c4c3C2=O)NC(=O)/C(C)=C\C=C\[C@H](C)[C@H](O)[C@@H](C)[C@@H](O)[C@@H](C)[C@H](OC(C)=O)[C@@H]1C [RIFAMPIN] | – | – | – | – | – | – | – | – | – | – | – | – | – | MIC (Staphylococcus aureus [30]): 0.016 µg/mL (≈ 0.0194 µM)
4 | CC(=O)NC[C@H]1CN(c2ccc(N3CCOCC3)c(F)c2)C(=O)O1 [LINEZOLID] | > 32 µg/mL | – | – | – | – | – | – | 1 µg/mL (≈ 2.96 µM) | 2 µg/mL (≈ 5.93 µM) | > 32 µg/mL | > 32 µg/mL | > 32 µg/mL | > 32 µg/mL | Activity (Staphylococcus aureus [31]): inactive; Activity (Staphylococcus aureus [32]): inactive; Activity (Staphylococcus aureus [33]): 25.7 mm2; Activity (Staphylococcus aureus [34]): inactive
